In paper PMC3961306, “Comparison of the Cancer Gene Targeting and Biochemical Selectivities of All Targeted Kinase Inhibitors Approved for Clinical Use” (PLoS ONE, 2014):

Key:
Experiment in all cases: Kinase profiling in a biochemical assay panel (mobility shift assays and ELISA), %-inhibition at 1 μM; selectivity entropy
[1] = target: T1, panel of more than 300 wild-type and mutant kinases (313 kinase panel) (Homo sapiens, UniProt P15735)
T1 sequence (P15735 1-406): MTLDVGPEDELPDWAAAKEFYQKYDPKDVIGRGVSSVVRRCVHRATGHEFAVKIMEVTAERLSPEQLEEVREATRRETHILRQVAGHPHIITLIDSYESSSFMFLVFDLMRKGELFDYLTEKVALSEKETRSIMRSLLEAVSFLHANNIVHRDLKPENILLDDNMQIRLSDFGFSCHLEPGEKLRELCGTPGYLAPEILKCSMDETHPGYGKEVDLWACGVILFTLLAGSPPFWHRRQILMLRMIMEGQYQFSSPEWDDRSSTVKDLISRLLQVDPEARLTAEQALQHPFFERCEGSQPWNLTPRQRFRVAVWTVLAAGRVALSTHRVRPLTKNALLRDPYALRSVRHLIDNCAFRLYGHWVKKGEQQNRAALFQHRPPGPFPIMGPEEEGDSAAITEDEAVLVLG

[2] = target: T2, panel of more than 300 wild-type and mutant kinases (313 kinase panel) (Homo sapiens, UniProt O14733)
T2 sequence (O14733 1-419): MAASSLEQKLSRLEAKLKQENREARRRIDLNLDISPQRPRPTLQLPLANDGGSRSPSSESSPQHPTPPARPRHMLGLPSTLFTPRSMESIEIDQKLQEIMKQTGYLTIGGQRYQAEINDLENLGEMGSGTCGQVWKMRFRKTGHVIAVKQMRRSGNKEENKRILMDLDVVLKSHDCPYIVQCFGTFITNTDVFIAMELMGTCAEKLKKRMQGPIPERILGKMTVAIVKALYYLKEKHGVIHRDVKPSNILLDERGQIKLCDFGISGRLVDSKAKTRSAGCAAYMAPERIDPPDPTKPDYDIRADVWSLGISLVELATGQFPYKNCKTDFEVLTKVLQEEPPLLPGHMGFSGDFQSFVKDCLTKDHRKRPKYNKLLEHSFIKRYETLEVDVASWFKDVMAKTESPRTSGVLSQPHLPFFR

[3] = target: T3, panel of more than 300 wild-type and mutant kinases (313 kinase panel) (Homo sapiens, UniProt O15146)
T3 sequence (O15146 24-869): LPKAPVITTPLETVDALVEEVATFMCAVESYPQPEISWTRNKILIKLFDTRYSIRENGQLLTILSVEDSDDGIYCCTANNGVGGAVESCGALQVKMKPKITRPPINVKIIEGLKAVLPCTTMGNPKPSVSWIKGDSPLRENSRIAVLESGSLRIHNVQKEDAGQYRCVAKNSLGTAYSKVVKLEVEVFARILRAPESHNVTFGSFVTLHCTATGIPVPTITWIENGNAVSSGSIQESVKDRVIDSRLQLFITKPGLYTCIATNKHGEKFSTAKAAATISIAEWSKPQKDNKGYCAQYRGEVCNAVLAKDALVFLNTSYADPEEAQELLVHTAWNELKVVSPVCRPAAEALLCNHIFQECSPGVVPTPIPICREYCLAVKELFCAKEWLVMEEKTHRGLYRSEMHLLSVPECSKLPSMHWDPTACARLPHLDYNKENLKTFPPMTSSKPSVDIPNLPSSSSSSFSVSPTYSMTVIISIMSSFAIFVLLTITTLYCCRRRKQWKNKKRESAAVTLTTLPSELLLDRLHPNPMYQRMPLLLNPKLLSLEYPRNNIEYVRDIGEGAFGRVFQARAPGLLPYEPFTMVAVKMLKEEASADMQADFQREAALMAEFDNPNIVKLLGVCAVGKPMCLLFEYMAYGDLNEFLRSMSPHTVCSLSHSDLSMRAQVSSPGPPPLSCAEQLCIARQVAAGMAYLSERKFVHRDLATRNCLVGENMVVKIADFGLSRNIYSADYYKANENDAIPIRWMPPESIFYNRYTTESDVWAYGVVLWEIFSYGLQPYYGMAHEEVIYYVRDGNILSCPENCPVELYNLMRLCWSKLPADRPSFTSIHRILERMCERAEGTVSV

[4] = target: panel of more than 300 wild-type and mutant kinases (313 kinase panel) (Homo sapiens, UniProt P28482)
[5] = target: panel of more than 300 wild-type and mutant kinases (313 kinase panel) (Homo sapiens, UniProt Q9Y6R4)
panel of more than 300 wild-type and mutant kinases (313 kinase panel) (Homo sapiens, UniProt Q9Y6R4), sequence (Q9Y6R4 whole entry, change not shown): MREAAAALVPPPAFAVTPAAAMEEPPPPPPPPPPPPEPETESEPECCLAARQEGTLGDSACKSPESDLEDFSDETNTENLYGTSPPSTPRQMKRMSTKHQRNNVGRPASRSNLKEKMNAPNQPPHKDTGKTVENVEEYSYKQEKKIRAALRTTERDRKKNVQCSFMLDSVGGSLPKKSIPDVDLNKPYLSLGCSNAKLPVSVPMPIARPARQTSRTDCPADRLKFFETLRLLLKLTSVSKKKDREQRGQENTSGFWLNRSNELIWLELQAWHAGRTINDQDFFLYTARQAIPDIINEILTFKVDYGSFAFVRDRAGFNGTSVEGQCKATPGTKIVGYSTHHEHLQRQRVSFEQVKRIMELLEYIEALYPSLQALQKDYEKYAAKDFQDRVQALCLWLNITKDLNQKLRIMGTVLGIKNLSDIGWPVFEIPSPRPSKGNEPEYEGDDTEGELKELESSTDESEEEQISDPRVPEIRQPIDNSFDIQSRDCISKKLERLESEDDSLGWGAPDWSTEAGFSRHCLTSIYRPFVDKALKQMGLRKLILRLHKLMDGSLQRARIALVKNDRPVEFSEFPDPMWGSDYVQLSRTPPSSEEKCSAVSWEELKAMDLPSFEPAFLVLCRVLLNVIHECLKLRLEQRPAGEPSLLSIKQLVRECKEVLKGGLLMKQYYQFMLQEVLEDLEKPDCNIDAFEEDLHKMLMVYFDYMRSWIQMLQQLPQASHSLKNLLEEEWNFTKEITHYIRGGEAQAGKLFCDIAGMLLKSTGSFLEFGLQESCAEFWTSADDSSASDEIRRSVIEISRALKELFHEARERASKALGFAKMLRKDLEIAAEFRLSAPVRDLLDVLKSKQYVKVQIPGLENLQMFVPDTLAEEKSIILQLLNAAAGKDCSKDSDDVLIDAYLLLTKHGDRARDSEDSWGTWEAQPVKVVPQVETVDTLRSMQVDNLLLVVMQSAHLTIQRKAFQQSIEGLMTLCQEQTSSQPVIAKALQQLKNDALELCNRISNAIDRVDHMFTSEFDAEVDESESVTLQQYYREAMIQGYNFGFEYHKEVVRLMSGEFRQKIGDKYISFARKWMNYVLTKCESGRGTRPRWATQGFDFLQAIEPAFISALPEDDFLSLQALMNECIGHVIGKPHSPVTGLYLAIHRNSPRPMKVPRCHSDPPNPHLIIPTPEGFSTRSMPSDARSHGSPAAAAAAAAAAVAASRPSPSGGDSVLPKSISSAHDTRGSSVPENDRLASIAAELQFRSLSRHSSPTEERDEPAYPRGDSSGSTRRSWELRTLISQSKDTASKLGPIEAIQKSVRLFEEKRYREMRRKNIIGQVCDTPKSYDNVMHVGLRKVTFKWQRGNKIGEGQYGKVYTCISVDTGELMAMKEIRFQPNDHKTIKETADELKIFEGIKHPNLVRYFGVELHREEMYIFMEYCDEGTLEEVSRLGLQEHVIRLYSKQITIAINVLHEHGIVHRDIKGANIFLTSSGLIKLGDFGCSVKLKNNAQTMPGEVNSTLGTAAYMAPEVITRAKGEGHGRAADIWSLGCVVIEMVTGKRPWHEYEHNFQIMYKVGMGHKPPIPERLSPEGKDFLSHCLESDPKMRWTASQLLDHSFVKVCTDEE

[6] = kinase MAP2K7, compound at 1 μM
[7] = kinase MAP3K4, compound at 1 μM

SMILES | %-inhibition of PHKG2 ([1]; kinase PHKG2, 1 μM) [%] | %-inhibition of MAP2K7 [2, 6] [%] | %-inhibition of MUSK ([3]; kinase MUSK, 1 μM) [%] | %-inhibition of Erk2 ([4]; kinase Erk2, compound at 1 μM) [%] | %-inhibition of MAP3K4 [5, 7] [%] | %-inhibition of MAP2K7 ([2]; 1 µM) [%] | %-inhibition of PHKG2 ([1]; 1 µM) [%] | %-inhibition of MAP3K4 ([5]; 1 µM) [%] | %-inhibition of MUSK ([3]; 1 µM) [%] | %-inhibition of Erk2 ([4]; 1 µM) [%]
CO[C@H]1C[C@@H]2CC[C@@H](C)[C@@](O)(O2)C(=O)C(=O)N2CCCC[C@H]2C(=O)O[C@H]([C@H](C)C[C@@H]2CC[C@@H](OC(=O)C(C)(CO)CO)[C@H](OC)C2)CC(=O)[C@H](C)/C=C(\C)[C@@H](O)[C@@H](OC)C(=O)[C@H](C)C[C@H](C)/C=C/C=C/C=C/1C [temsirolimus] | -7 | 10 | -9 | -6 | 11 | – | – | – | – | –
CNC(=O)c1cc(Oc2ccc(NC(=O)Nc3ccc(Cl)c(C(F)(F)F)c3)c(F)c2)ccn1 [regorafenib] | -8 | -2.53 | 80 | -5 | -9 | – | – | – | – | –
CO[C@H]1C[C@@H]2CC[C@@H](C)[C@@](O)(O2)C(=O)C(=O)N2CCCC[C@H]2C(=O)O[C@H]([C@H](C)C[C@@H]2CC[C@@H](OCCO)[C@H](OC)C2)CC(=O)[C@H](C)/C=C(\C)[C@@H](O)[C@@H](OC)C(=O)[C@H](C)C[C@H](C)/C=C/C=C/C=C/1C [everolimus] | -8 | 11 | -7 | -7.44 | -1.11 | – | – | – | – | –
COc1cc2nccc(Oc3ccc(NC(=O)C4(C(=O)Nc5ccc(F)cc5)CC4)cc3)c2cc1OC [cabozantinib] | -0.305 | 10 | 95 | -8 | -0.178 | – | – | – | – | –
Cc1nc(Nc2ncc(C(=O)Nc3c(C)cccc3Cl)s2)cc(N2CCN(CCO)CC2)n1 [dasatinib] | – | -7 | – | – | – | – | – | – | – | –
COc1cc2c(Nc3ccc(Br)cc3F)ncnc2cc1OCC1CCN(C)CC1 [vandetanib] | 19 | 5.36 | 42 | -4 | -10 | – | – | – | – | –
CC(C)(C)c1nc(-c2cccc(NS(=O)(=O)c3c(F)cccc3F)c2F)c(-c2ccnc(N)n2)s1 [dabrafenib] | 2 | -4.55 | 16 | -8 | 19 | – | – | – | – | –
Cc1ccc(Nc2nccc(N(C)c3ccc4c(C)n(C)nc4c3)n2)cc1S(N)(=O)=O [pazopanib] | 1 | 10 | 9 | -0.636 | 2.47 | – | – | – | – | –
N#CC[C@H](C1CCCC1)n1cc(-c2ncnc3[nH]ccc23)cn1 [ruxolitinib] | 18 | – | 56 | -5.62 | -4 | 4 | – | – | – | –
C[C@@H](Oc1cc(-c2cnn(C3CCNCC3)c2)cnc1N)c1c(Cl)ccc(F)c1Cl [crizotinib] | 10 | 4.36 | 99 | -4.58 | 5 | – | – | – | – | –
CCCS(=O)(=O)Nc1ccc(F)c(C(=O)c2c[nH]c3ncc(-c4ccc(Cl)cc4)cc23)c1F [vemurafenib] | -4.37 | 1.65 | -0.285 | -4.58 | 14 | – | – | – | – | –
O=S(=O)(c1cccc2cnccc12)N1CCCNCC1 [fasudil] | 4 | -3.26 | 2 | -7 | -18 | – | – | – | – | –
CS(=O)(=O)CCNCc1ccc(-c2ccc3ncnc(Nc4ccc(OCc5cccc(F)c5)c(Cl)c4)c3c2)o1 [lapatinib] | – | -4 | 4.38 | -7 | – | – | 0.269 | 2 | – | –
C#Cc1cccc(Nc2ncnc3cc(OCCOC)c(OCCOC)cc23)c1 [erlotinib] | – | – | – | – | – | -5 | 4 | -1.55 | 12 | -2
Cc1cn(-c2cc(NC(=O)c3ccc(C)c(Nc4nccc(-c5cccnc5)n4)c3)cc(C(F)(F)F)c2)cn1 [nilotinib] | -9 | -24 | – | 1.49 | -18 | – | – | – | 42 | –
COc1cc(Nc2c(C#N)cnc3cc(OCCCN4CCN(C)CC4)c(OC)cc23)c(Cl)cc1Cl [bosutinib] | – | – | 58 | – | 96 | – | – | – | – | –
CCN(CC)CCNC(=O)c1c(C)[nH]c(/C=C2\C(=O)Nc3ccc(F)cc32)c1C [sunitinib] | – | – | 99 | – | – | – | – | – | – | –
CC(=O)Nc1cccc(-n2c(=O)n(C3CC3)c(=O)c3c(Nc4ccc(I)cc4F)n(C)c(=O)c(C)c32)c1 [trametinib] | 2.81 | -2.32 | -0.929 | -5 | 6 | – | – | – | – | –
Cc1ccc(C(=O)Nc2ccc(CN3CCN(C)CC3)c(C(F)(F)F)c2)cc1C#Cc1cnc2cccnn12 [ponatinib] | – | – | 100 | – | 60 | – | – | – | – | –
